Measured values reported in PubChem BioAssay AID192 (DTP/NCI, 2004).
Several values for one entry are separate records, joined by “and”; a condition that tells them apart may be missing. Identical values can stand only once. Toxic doses and inconclusive results are not listed. The calls were made as follows: active = survival T/C of 150% or more; inactive = T/C below 125% in these data.

Test system: BDF1 mice, B16 melanoma ip, median survival T/C
Experiment: NCI In Vivo Anticancer Drug Screen. Data for tumor model B16 Melanoma (intraperitoneal) in B6D2F1 (BDF1) mice
Settings: endpoint: median survival time, higher = longer survival
Outline: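 The ratio T/C compares compound-treated mice with vehicle-treated controls, using survival or tumor size as the endpoint in a transplantable tumor model.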

[1] = dose: 6.25 mg/kg/injection, schedule: Q01DX009 (ip), vehicle: saline
[2] = dose: 12.5 mg/kg/injection, schedule: Q01DX009 (ip), vehicle: saline
[3] = dose: 25.0 mg/kg/injection, schedule: Q01DX009 (ip), vehicle: saline
[4] = dose: 50.0 mg/kg/injection, schedule: Q01DX009 (ip), vehicle: saline
[5] = dose: 12.5 mg/kg/injection, schedule: Q01DX009 (ip), vehicle: saline with Tween-80
[6] = dose: 12.5 mg/kg/injection, schedule: Q01DX009 (ip), vehicle: Klucel (hydroxypropylcellulose) (HPC)
[7] = dose: 25.0 mg/kg/injection, schedule: Q01DX009 (ip), vehicle: Klucel (hydroxypropylcellulose) (HPC)
[8] = dose: 50.0 mg/kg/injection, schedule: Q01DX009 (ip), vehicle: Klucel (hydroxypropylcellulose) (HPC)

Measured: T/C

O=C(c1ccccc1)c1cc([N+](=O)[O-])cc([N+](=O)[O-])c1
inactive: dose: 100.0 mg/kg/injection, schedule: Q01DX009 (ip), vehicle: saline with Tween-80 97 % of control | dose: 200.0 mg/kg/injection, schedule: Q01DX009 (ip), vehicle: saline with Tween-80 91 % of control | dose: 400.0 mg/kg/injection, schedule: Q01DX009 (ip), vehicle: saline with Tween-80 89 % of control

COc1ccc(NC(=O)O/N=C2\CN(S(=O)(=O)c3ccc(C)cc3)CCc3ccccc32)cc1
inactive: dose: 100.0 mg/kg/injection, schedule: Q04DX003 (ip), vehicle: Klucel (hydroxypropylcellulose) (HPC) 102 % of control | dose: 200.0 mg/kg/injection, schedule: Q04DX003 (ip), vehicle: Klucel (hydroxypropylcellulose) (HPC) 97 % of control | dose: 400.0 mg/kg/injection, schedule: Q04DX003 (ip), vehicle: Klucel (hydroxypropylcellulose) (HPC) 88 % of control

CCN1/C(=C/C=C/C=C\C=C\c2sc3ccc4ccccc4c3[n+]2CC)Sc2ccc3ccccc3c21
inactive: dose: 2.5 mg/kg/injection, schedule: Q01DX009 (ip), vehicle: saline with Tween-80 87 % of control | dose: 10.0 mg/kg/injection, schedule: Q01DX009 (ip), vehicle: saline with Tween-80 115 % of control | dose: 20.0 mg/kg/injection, schedule: Q01DX009 (ip), vehicle: saline with Tween-80 96 % of control

Cc1ccc(C)c(NC(=O)Nc2cccc3ccccc23)c1
inactive: dose: 9.0 mg/kg/injection, schedule: Q01DX009 (ip), vehicle: gum acacia 108 % of control | dose: 18.0 mg/kg/injection, schedule: Q01DX009 (ip), vehicle: gum acacia 98 % of control | dose: 37.0 mg/kg/injection, schedule: Q01DX009 (ip), vehicle: gum acacia 91 % of control

COC(=O)[C@H]1[C@H]2C[C@@H]3c4[nH]c5cc(OC)ccc5c4CCN3C[C@H]2C[C@@H](OC(=O)/C=C/c2cc(OC)c(OC)c(OC)c2)[C@@H]1OC
inactive: dose: 0.09 mg/kg/injection, schedule: Q01DX009 (ip), vehicle: Klucel (hydroxypropylcellulose) (HPC) 90 % of control | dose: 0.19 mg/kg/injection, schedule: Q01DX009 (ip), vehicle: Klucel (hydroxypropylcellulose) (HPC) 94 % of control | dose: 0.39 mg/kg/injection, schedule: Q01DX009 (ip), vehicle: Klucel (hydroxypropylcellulose) (HPC) 94 % of control and 100 % of control | dose: 0.78 mg/kg/injection, schedule: Q01DX009 (ip), vehicle: Klucel (hydroxypropylcellulose) (HPC) 86 % of control and 90 % of control | dose: 1.56 mg/kg/injection, schedule: Q01DX009 (ip), vehicle: Klucel (hydroxypropylcellulose) (HPC) 87 % of control and 93 % of control

N#CC1CCCC[N-]1.[NH-]CC[N-]CC[NH-].[Pt+4] (centres undefined)
inactive: [1] 113 % of control | [2] 108 % of control | [3] 91 % of control

CC(=O)N(NC(C)C)C(C)C
inactive: [1] 111 % of control | [2] 103 % of control | [3] 99 % of control | [4] 102 % of control

O=C(Nc1ccccc1Cl)OCC(Cl)(Cl)Cl
inactive: dose: 75.0 mg/kg/injection, schedule: Q04DX003 (ip), vehicle: Klucel (hydroxypropylcellulose) (HPC) 96 % of control | dose: 150.0 mg/kg/injection, schedule: Q04DX003 (ip), vehicle: Klucel (hydroxypropylcellulose) (HPC) 91 % of control | dose: 300.0 mg/kg/injection, schedule: Q04DX003 (ip), vehicle: Klucel (hydroxypropylcellulose) (HPC) 102 % of control

N=C(N)c1ccc(N=NNc2ccc(C(=N)N)cc2)cc1
inactive: [5] 101 % of control | dose: 25.0 mg/kg/injection, schedule: Q01DX009 (ip), vehicle: saline with Tween-80 112 % of control | dose: 50.0 mg/kg/injection, schedule: Q01DX009 (ip), vehicle: saline with Tween-80 114 % of control

Cc1c(Cl)cccc1NC(=O)Nc1ccc(Cl)c(Cl)c1
inactive: [6] 105 % of control | [7] 92 % of control | [8] 91 % of control

COc1cccc(OC)c1C(c1c(OC)cccc1OC)c1c(OC)cccc1OC
inactive: dose: 25.0 mg/kg/injection, schedule: Q04DX003 (ip), vehicle: saline with Tween-80 120 % of control | dose: 50.0 mg/kg/injection, schedule: Q04DX003 (ip), vehicle: saline with Tween-80 108 % of control | dose: 100.0 mg/kg/injection, schedule: Q04DX003 (ip), vehicle: saline with Tween-80 114 % of control

CCC/C(C)=N/Nc1ccccn1
inactive: dose: 12.5 mg/kg/injection, schedule: Q01DX009 (ip), vehicle: saline sonified 97 % of control | dose: 25.0 mg/kg/injection, schedule: Q01DX009 (ip), vehicle: saline sonified 95 % of control | dose: 50.0 mg/kg/injection, schedule: Q01DX009 (ip), vehicle: saline sonified 97 % of control | dose: 100.0 mg/kg/injection, schedule: Q01DX009 (ip), vehicle: saline sonified 100 % of control

CN(CCN(C)Cc1ccccc1)Cc1ccccc1
inactive: [3] 100 % of control | [4] 92 % of control

Cc1nc2ccccc2nc1CBr
inactive: dose: 0.4 mg/kg/injection, schedule: Q01DX009 (ip), vehicle: saline with Tween-80 104 % of control | dose: 0.8 mg/kg/injection, schedule: Q01DX009 (ip), vehicle: saline with Tween-80 104 % of control | dose: 0.8 mg/kg/injection, schedule: Q01DX009 (ip), vehicle: saline 95 % of control | dose: 1.6 mg/kg/injection, schedule: Q01DX009 (ip), vehicle: Klucel (hydroxypropylcellulose) (HPC) 93 % of control | dose: 1.6 mg/kg/injection, schedule: Q01DX009 (ip), vehicle: saline 93 % of control | dose: 3.12 mg/kg/injection, schedule: Q01DX009 (ip), vehicle: Klucel (hydroxypropylcellulose) (HPC) 100 % of control | dose: 3.2 mg/kg/injection, schedule: Q01DX009 (ip), vehicle: saline with Tween-80 119 % of control | dose: 3.2 mg/kg/injection, schedule: Q01DX009 (ip), vehicle: saline 95 % of control | dose: 6.25 mg/kg/injection, schedule: Q01DX009 (ip), vehicle: Klucel (hydroxypropylcellulose) (HPC) 87 % of control | dose: 6.25 mg/kg/injection, schedule: Q01DX009 (ip), vehicle: saline with Tween-80 113 % of control | dose: 6.3 mg/kg/injection, schedule: Q01DX009 (ip), vehicle: saline 102 % of control | [6] 96 % of control | [5] 108 % of control

CC[C@@H]1O[C@@H]([C@@H]2CC[C@](O)([C@]3(C)CC[C@@H]([C@@H](C)[C@@]4(O)CC[C@H](C)[C@@H](C[C@@]5(O)O[C@@H]([C@@H](C)[C@H](O)C[C@H]6CC[C@H](C)[C@@H]([C@@H](C)C(=O)O)O6)CC[C@@H]5C)O4)O3)O2)CC[C@@]1(C)O
inactive: dose: 0.12 mg/kg/injection, schedule: Q01DX009 (ip), vehicle: saline 91 % of control | dose: 0.25 mg/kg/injection, schedule: Q01DX009 (ip), vehicle: saline 89 % of control | dose: 0.5 mg/kg/injection, schedule: Q01DX009 (ip), vehicle: saline 96 % of control

CS(=O)(=O)c1ccnc2ccccc12
inactive: [8] 91 % of control | dose: 100.0 mg/kg/injection, schedule: Q01DX009 (ip), vehicle: Klucel (hydroxypropylcellulose) (HPC) 90 % of control

C[N+](C)([O-])CCC=C1c2ccccc2CCc2ccccc21
inactive: [1] 95 % of control | [2] 90 % of control | [4] 90 % of control

O=C(O)C1CCCN1CCc1ccccc1 (centres undefined)
inactive: dose: 100.0 mg/kg/injection, schedule: Q04DX003 (ip), vehicle: saline 98 % of control | dose: 200.0 mg/kg/injection, schedule: Q04DX003 (ip), vehicle: saline 103 % of control | dose: 400.0 mg/kg/injection, schedule: Q04DX003 (ip), vehicle: saline 102 % of control

COC(=O)C(CSCc1ccccc1)NC(=O)CCNC(=O)OCc1ccccc1 (centres undefined)
inactive: dose: 25.0 mg/kg/injection, schedule: Q01DX009 (ip), vehicle: other 107 % of control | dose: 50.0 mg/kg/injection, schedule: Q01DX009 (ip), vehicle: other 92 % of control | dose: 100.0 mg/kg/injection, schedule: Q01DX009 (ip), vehicle: other 97 % of control | dose: 200.0 mg/kg/injection, schedule: Q01DX009 (ip), vehicle: other 93 % of control

O=N[O-].[Co].[NH2-].[NH2-].[NH2-].[NH2-].[NH2-]
inactive: [2] 90 % of control | dose: 12.5 mg/kg/injection, schedule: Q04DX003 (ip), vehicle: saline 107 % of control | [3] 97 % of control | dose: 25.0 mg/kg/injection, schedule: Q04DX003 (ip), vehicle: saline 105 % of control | [4] 100 % of control | dose: 50.0 mg/kg/injection, schedule: Q04DX003 (ip), vehicle: saline 100 % of control

Nc1ccccc1SC1CC(=O)N(c2ccc(Br)cc2Cl)C1=O (centres undefined)
inactive: [8] 94 % of control

CC(COCc1ccccc1)NCc1ccccc1 (centres undefined)
inactive: [7] 96 % of control | [8] 90 % of control
